How the values were obtained:
[1] = tested on: writhing syndrome induced by acetic acid; experiment: Acetic Acid Induced Writhing (analgesic activity); type: in vivo, male ddY strain mice; settings: Dose: 32 mg/kg, orally 60 minutes before 0.6% acetic acid i.p.; observed from 3 to 13 minutes; mice
Method: (1) Acetic Acid Induced Writhing
Ten male ddY strain mice were used per group. To estimate the frequency of writhing syndrome, the animals were observed from 3 to 13 minutes after an intraperitoneal injection of 0.2 ml/10 g of 0.6% acetic acid. The drugs were given orally 60 minutes before acetic acid. The frequency of writhing syndrome in the treated animals was compared with that in the nontreated control animals.

[2] = tested on: Paw edema induced by carrageenin; experiment: Carrageenin Foot Edema (antiinflammatory activity); type: in vivo, male Sprague-Dawley rats; settings: Dose: 32 mg/kg, orally 60 minutes before phlogogen; edema volume 3 hours after 1% carrageenin; rats
Method: (1) Carrageenin Foot Edema
Five male Sprague-Dawley rats weighing about 200 g were used per group.
Paw edema was induced by subplantar injection of 1% carrageenin (0.1 ml/rat) into the right hind paw. The test drug was suspended in 0.5% methylcellulose and administered orally 60 minutes before phlogogen. Paw volume was measured with plethysmometer (Ugo Bazil Co., Ltd.) by water displacement immersing the paw to the lateral malleolus. The difference of paw volume before and 3 hours after the phlogogen was designated as edema volume.
The data were analyzed statistically by student's t-test.

SMILES	Inhibition (%) of acetic acid induced writhing [1] [%]	Inhibition (%) of carrageenin foot edema [2] [%]
O=C(Nc1cccnc1)NN1CC=CCC1 [Compound B, N-[(3-Pyridylcarbamoyl)amino]-1,2,3,6-tetrahydropyridine]	95.5	45.9
O=C(Nc1ccncc1)NN1CC=CCC1 [Compound A, N-[(4-Pyridylcarbamoyl)amino]-1,2,3,6-tetrahydropyridine]	73.4	41.4
O=C(Nc1cnccn1)NN1CC=CCC1 [Compound E, N-(Pyrazinylcarbamoylamino)-1,2,3,6-tetrahydropyridine]	–	54.7
O=C(Nc1ccccn1)NN1CC=CCC1 [Compound C, N-[(2-Pyridylcarbamoyl)amino]-1,2,3,6-tetrahydropyridine]	–	50.9
O=C(NN1CC=CCC1)NN1CC=CCC1 [Compound H, N,N'-[Bis-(1,2,3,6-tetrahydropyridin-1-yl)]urea]	82.0	–
O=C(Nc1ccncn1)NN1CC=CCC1 [Compound D, N-[(4-Pyrimidinylcarbamoyl)amino]-1,2,3,6-tetrahydropyridine]	68.5	48.0
O=C(NN1CC=CCC1)NN1CCCC1 [Compound G, N-[(1-Pyrrolidinylcarbamoyl)amino]-1,2,3,6-tetrahydropyridine]	84.7	–
O=C(Nc1ccc(Cl)nc1)NN1CC=CCC1 [Compound F, N-[[(2-Chloropyridin-5-yl)carbamoyl]amino]-1,2,3,6-tetrahydropyridine]	75.1	49.9
